pIC50: −log10 of the molar value.
Experiments:
H1975 = conditions: read-out: H1975 Cell IC50; cited from earlier work
hepatocytes = assay: Metabolite identification in hepatocytes, human; format: in vitro ADME; conditions: 10 μM, 240 min, formation of AZ5104 via de-alkylation on the indole ring
Protocol: Suspended hepatocytes in enough incubation medium to yield ˜1.5×10^6 cells/mL. Pipetted 199 μL of viable hepatocytes or the boiled hepatocytes into each wells of a 96-well non-coated plate. Placed the plate in the incubator on an orbital shaker to allow the hepatocytes to warm for 10 minutes. Pipetted 1 μL of the 2 mM test compound(s) into respective wells of the 96-well non-coated plate to start the reaction with final concentration of 10 μM. Returned the plate to the incubator and placed on an orbital shaker. Incubated at 37° C., 5% CO2 and 90-95% relative humidity with shaking at 500 rpm on the shaker for 240 min. After incubation, transferred media from each well to a tube containing 400 μL cold methanol, washed the well with 200 μL cold methanol and then transferred the media to the corresponding tube. Centrifuged tubes for 10 minutes at 16,000 g. Aliquots of 200 μL of the supernatants were mixed with 200 μL of pure water and used for LC-MS/MS analysis. UHPLC-MS/MS analysis was conducted using a Dionex UltiMate 3000 UHPLC system (Thermo Fisher Scientific, USA) and Thermo Scientific Q Exactive (Thermo Fisher Scientific, USA) fitted with a HESI probe. […]

[1] = observed with AZD9291 treatment; cited from earlier work
EGFR (T790M/L858R) = target: T1, EGFR (T790M/L858R) (Homo sapiens, UniProt P00533, L858R/T790M); assay: EGFR biochemical enzyme assay (CisBio HTRF KinEASE TK); conditions: 30 μM ATP in substrate mix, 50 mins incubation
T1 construct: with amino acids 696-end containing the T790M and L858R mutations; GST (N); purchased Millipore
T1 sequence (P00533 696-1210 T790M/L858R): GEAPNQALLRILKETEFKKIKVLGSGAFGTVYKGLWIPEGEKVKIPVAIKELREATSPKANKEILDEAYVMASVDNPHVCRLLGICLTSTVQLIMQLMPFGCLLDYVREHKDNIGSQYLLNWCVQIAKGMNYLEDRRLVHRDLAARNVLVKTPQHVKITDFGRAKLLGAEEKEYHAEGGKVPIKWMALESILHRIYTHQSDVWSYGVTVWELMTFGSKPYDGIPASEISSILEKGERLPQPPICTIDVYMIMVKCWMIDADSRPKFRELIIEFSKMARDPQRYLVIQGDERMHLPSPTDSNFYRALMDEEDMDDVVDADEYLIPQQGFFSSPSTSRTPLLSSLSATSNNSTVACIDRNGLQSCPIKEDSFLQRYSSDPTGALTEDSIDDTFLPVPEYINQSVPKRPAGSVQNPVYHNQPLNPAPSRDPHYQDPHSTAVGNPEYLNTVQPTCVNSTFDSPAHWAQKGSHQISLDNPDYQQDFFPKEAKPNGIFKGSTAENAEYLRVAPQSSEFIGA
Protocol: (§1) The inhibitory activity of a compound against EGFR (T790M/L858R) were determined with CisBio HTRF (homogenous time-resolved fluorescence) KinEASE TK (#62TKOPEC). The enzyme reaction contained recombinant N-terminal GST-tagged human EGFR (T790M/L858R), which phosphorylates the HTRF tyrosine kinase biotinylated substrate.
(§2) The sequence of the substrate is proprietary to CisBio. Test compounds were serially diluted in 100% (v/v) DMSO before being acoustically dispensed from an Echo 555 (Labcyte) into black Corning 1536-well assay plates. Kinase activity assays were performed in a total reaction volume of 3 μL per well. A 1.5 μL enzyme reaction consisted of 1.6 nM EGFR ([…], L858R), 1 mM DTT, and 10 mM MgCl2. A 1.5 μL substrate mix consisted of 1 μM TK substrate, 30 μM ATP, 1 mM DTT, and 10 mM MgCl2. Following a 50 mins incubation, 3 μL of stop mix was added, which consisted of 250 nM Strep-XL665 and TK Ab-Cryptate diluted in kit detection buffer. The plates were incubated for 1 h before being read on Pherastar using standard HTRF settings. N-terminal GST-tagged recombinant human EGF receptor, with amino acids 696-end containing the T790M and L858R mutations, was obtained from Millipore.

EGFR L858R = EGFR L858R (Homo sapiens, UniProt P00533, L858R); assay: EGFR biochemical enzyme assay, L858R
Chain of EGFR L858R (P00533 25-1210 L858R): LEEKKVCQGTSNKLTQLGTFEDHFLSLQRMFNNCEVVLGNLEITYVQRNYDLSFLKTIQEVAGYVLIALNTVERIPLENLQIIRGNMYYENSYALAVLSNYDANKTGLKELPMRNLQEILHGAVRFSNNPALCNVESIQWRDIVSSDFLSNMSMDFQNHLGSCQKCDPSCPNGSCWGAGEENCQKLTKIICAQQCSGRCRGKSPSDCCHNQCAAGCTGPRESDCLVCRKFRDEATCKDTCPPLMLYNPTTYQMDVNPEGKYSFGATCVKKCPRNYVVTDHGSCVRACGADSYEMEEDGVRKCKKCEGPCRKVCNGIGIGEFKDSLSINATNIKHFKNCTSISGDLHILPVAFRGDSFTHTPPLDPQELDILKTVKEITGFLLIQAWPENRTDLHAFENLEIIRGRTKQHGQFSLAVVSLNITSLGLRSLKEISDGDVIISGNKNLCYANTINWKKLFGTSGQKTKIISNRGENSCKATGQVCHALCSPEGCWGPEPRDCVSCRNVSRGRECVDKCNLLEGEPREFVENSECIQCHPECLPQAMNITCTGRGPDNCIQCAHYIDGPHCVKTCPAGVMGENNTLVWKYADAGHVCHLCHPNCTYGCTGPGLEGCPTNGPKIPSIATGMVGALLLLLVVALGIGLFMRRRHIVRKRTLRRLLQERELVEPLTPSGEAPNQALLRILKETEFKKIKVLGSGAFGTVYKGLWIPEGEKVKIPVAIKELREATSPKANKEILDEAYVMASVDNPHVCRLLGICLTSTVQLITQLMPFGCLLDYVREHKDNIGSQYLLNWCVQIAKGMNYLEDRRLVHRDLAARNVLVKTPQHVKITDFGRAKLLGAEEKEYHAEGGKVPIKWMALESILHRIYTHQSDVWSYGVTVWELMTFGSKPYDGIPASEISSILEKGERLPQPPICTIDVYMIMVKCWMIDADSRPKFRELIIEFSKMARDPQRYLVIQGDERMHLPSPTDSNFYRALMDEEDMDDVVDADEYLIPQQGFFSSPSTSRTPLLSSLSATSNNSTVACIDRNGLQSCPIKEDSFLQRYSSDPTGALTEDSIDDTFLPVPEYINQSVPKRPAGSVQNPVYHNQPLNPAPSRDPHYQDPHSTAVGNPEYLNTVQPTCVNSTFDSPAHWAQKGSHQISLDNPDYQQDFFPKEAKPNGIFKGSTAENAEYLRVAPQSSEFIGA
Protocol: [The source words this procedure for another variant and reports this variant under the same test.] as §1, §2

EGFR Del-19 = target: T2, EGFR Del-19 (Homo sapiens, UniProt P00533); assay: EGFR biochemical enzyme assay, Del-19
T2 construct: as for the T790M/L858R enzyme of the same protocol
Protocol: [The source words this procedure for another variant and reports this variant under the same test.] as §1, §2

EGFR Wt = EGFR Wt (Homo sapiens, UniProt P00533); assay: EGFR biochemical enzyme assay, Wt
Chain of EGFR Wt (P00533 25-1210): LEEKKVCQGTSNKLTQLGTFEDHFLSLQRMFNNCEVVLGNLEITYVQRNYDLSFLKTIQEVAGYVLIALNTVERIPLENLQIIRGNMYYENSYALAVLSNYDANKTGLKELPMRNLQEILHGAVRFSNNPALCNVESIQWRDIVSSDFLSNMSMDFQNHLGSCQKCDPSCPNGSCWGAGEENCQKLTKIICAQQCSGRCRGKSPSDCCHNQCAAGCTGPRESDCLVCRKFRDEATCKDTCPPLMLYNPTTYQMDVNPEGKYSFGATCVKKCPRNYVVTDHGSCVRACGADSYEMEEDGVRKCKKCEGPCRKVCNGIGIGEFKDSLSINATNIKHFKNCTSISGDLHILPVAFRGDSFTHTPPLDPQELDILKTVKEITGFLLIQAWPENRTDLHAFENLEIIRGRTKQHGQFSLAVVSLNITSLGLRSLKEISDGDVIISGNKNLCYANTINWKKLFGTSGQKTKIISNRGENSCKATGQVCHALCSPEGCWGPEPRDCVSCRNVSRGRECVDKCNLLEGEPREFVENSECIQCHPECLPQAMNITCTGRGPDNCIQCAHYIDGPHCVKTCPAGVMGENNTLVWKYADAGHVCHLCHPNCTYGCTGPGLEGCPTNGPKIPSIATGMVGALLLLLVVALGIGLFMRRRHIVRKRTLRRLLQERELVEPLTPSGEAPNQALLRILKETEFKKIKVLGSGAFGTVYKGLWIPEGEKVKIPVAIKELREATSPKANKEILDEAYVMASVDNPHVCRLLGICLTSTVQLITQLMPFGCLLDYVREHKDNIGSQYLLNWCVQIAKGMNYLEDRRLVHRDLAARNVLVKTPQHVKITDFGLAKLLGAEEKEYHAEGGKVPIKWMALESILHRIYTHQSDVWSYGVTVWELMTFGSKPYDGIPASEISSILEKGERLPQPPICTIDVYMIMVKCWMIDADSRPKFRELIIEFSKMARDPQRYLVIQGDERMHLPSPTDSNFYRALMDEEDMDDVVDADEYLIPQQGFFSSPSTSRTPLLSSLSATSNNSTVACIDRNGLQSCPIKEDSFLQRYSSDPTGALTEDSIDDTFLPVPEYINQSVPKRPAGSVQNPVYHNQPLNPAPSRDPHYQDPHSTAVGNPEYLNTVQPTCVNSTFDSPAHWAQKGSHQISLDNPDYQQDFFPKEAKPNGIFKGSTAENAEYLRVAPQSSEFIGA
Protocol: [The source words this procedure for another variant and reports this variant under the same test.] as §1, §2

IGF1R = IGF1R (Homo sapiens, UniProt P08069); assay: Biochemical enzyme assay, IGF1R
Chain of IGF1R (P08069 31-1367, species assumed): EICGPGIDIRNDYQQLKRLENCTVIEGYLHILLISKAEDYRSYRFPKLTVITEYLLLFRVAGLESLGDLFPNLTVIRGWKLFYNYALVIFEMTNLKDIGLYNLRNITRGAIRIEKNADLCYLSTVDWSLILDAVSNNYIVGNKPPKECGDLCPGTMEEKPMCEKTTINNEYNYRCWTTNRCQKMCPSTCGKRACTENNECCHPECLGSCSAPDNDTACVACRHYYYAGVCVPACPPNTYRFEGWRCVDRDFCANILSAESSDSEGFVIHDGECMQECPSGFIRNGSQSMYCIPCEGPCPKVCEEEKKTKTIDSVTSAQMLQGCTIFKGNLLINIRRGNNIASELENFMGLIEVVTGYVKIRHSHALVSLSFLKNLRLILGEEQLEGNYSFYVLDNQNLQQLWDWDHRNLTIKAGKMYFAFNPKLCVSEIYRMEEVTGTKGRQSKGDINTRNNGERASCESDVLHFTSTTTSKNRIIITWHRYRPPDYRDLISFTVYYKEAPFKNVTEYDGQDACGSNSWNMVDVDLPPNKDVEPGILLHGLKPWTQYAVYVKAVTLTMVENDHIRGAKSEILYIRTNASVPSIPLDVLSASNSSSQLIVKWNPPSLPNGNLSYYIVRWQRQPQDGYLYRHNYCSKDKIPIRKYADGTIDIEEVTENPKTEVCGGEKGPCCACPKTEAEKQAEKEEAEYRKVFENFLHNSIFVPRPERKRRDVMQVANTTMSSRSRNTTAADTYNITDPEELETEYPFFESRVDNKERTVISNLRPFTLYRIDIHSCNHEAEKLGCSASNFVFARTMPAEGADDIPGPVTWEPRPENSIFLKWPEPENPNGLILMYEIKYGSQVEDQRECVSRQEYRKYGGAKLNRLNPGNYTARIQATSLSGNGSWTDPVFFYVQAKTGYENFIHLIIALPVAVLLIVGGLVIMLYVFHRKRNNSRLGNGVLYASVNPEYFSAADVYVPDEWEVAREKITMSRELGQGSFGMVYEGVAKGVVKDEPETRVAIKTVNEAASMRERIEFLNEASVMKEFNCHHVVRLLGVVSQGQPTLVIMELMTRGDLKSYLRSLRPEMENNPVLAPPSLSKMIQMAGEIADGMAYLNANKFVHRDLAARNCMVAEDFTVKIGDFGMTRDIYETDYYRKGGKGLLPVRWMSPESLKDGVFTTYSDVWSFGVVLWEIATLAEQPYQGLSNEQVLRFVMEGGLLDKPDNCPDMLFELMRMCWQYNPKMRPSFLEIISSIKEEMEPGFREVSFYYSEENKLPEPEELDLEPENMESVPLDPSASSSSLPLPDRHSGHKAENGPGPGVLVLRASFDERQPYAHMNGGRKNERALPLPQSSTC

INSR = INSR (Homo sapiens, UniProt P06213); assay: Biochemical enzyme assay, INSR
H1975 (L858R/T790M) = assay: EGFR cell proliferation assay (CellTiter-Glo), H1975; format: cell-based; conditions: Homo sapiens, NCI-H1975, 3-5 days of compound treatment
Protocol: (§3) Cell Lines: A431 (WT), H1975 (L858R/T790M), PC9 (E746-A750 deletion): A431 cells were grown in DMEM (Invitrogen, Carlsbad, CA) supplemented with 10% FBS (HyClone, South Logan, UT) and 1% Penicillin-Streptomycin (P/S, Lonza, Walkersville, MD). H1975 cells were grown in RPMI 1640 (Invitrogen) supplemented with 10% FBS and 1% P/S. […] PC-9 cells were obtained from Japan. All cells were maintained and propagated as monolayer cultures at 37° C. in a humidified 5% CO2 incubator. All cells were cultured according to recommendations.
(§4) Cell proliferation was measured using the CellTiter-Glo® Luminescent Cell Viability Assay. The assay involved the addition of a single reagent (CellTiter-Glo® Reagent) directly to cells cultured in serum-supplemented medium. The assay used a one-step addition to induce cell lysis and generate a luminescent signal proportional to the amount of ATP present, which is directly proportional to the number of metabolically active cells present in culture.
(§5) Each compound evaluated was prepared as a DMSO stock solution (10 mM). Compounds were tested in duplicate on each plate, with an 11-point serial dilution curve (1:3 dilution). Compound treatment (50 μL) was added from the compound dilution plate to the cell plate. The highest compound concentration was 1 or 10 μM (final), with a 0.3% final DMSO (#D-5879, Sigma, St Louis, MO) concentration. Plates were then incubated at 37° C., 5% CO2. After 3-5 days of compound treatment, CellTiter-Glo® Reagent (#G7573, Promega, Madison, WI) was prepared in one of two ways. If thawing a frozen aliquot of CellTiter-Glo® Reagent, the aliquot was thawed and equilibrated to RT prior to use while keeping it protected from light. Alternatively, new bottles of CellTiter-Glo® Buffer and CellTiter-Glo® Substrate were thawed and equilibrated to RT prior to use. CellTiter-Glo® Buffer (100 mL) was transferred into the amber bottle containing CellTiter-Glo® Substrate to reconstitute the lyophilized enzyme/substrate mixture, forming the CellTiter-Glo® Reagent. The reconstituted reagent was mixed by gently inverting the contents to obtain a homogeneous solution, and went into solution easily in less than 1 min. Any unused reconstituted CellTiter-Glo® Reagent was immediately aliquoted and frozen at −20° C., and protected from light. Cell plates were equilibrated at RT for approximately 30 mins. An equi-volume amount of CellTiter-Glo® Reagent (100 μL) was added to each well. Plates were mixed for 2 mins on an orbital shaker to induce cell lysis, and then were allowed to incubate at RT for 10 mins to stabilize the luminescent signal. Luminescence was recorded using the PerkinElmer EnVision Excite Multilabel Reader used for endpoint reading for luminescence detection (Waltham, MA). Data was analyzed using a four-parameter fit in Microsoft Excel.

PC9 (E746-A750 deletion) = assay: EGFR cell proliferation assay (CellTiter-Glo), PC9; format: cell-based; conditions: 3-5 days of compound treatment
Protocol: as §3, §4, §5

A431 (WT) = assay: EGFR cell proliferation assay (CellTiter-Glo), A431; format: cell-based; conditions: Homo sapiens, A-431, 3-5 days of compound treatment
Protocol: as §3, §4, §5

Row | Metabolite AZ5104, Human (hepatocytes) | pIC50 (EGFR (T790M/L858R)) | pIC50 (EGFR L858R) | pIC50 (EGFR Del-19) | pIC50 (EGFR Wt) | pIC50 (IGF1R) | pIC50 (INSR) | pIC50 (H1975 (L858R/T790M)) | pIC50 (PC9 (E746-A750 deletion)) | pIC50 (A431 (WT)) | SMILES | pIC50 (H1975) | clinical side effect: diarrhea [1] [%] | clinical side effect: rash [1] [%]
1 | – | ≥ 8.00 | – | ≥ 8.00 | ≥ 8.00 | ≤ 7.00 | ≤ 7.00 | ≥ 7.30 | 6.52 to 7.30 | ≤ 6.52 | C=CC(=O)Nc1cc(Nc2nccc(-c3nn(C45CC(C4)C5)c4ccccc34)n2)c(OC)cc1N(C)CCN(C)C [Example 5, N-(5-((4-(1-(bicyclo[1.1.1]pentan-1-yl)-1H-indazol-3-yl)pyrimidin-2-yl)amino)-2-((2-(dimethylamino)ethyl)(methyl)amino)-4-methoxyphenyl)acrylamide] | – | – | –
2 | – | ≥ 8.00 | ≤ 7.00 | ≤ 7.00 | ≤ 7.00 | ≤ 7.00 | ≤ 7.00 | ≤ 6.52 | ≤ 6.52 | ≤ 6.52 | C=CC(=O)Nc1cc(Nc2nccc(-c3cn(C)c4ccccc34)n2)c(OC)cc1N(C)C12CC(N(C)C)(C1)C2 [Example 6, N-(2-((3-(dimethylamino)bicyclo[1.1.1]pentan-1-yl)(methyl)amino)-4-methoxy-5-((4-(1-methyl-1H-indol-3-yl)pyrimidin-2-yl)amino)phenyl)acrylamide] | – | – | –
3 | – | ≥ 8.00 | ≥ 8.00 | ≥ 8.00 | ≥ 8.00 | – | – | ≥ 7.30 | ≤ 6.52 | ≤ 6.52 | C=CC(=O)Nc1cc(Nc2nccc(-c3cn(C45CC(F)(C4)C5)c4ccccc34)n2)c(OC)cc1N(C)CCN(C)C [Example 7, N-(2-((2-(dimethylamino)ethyl)(methyl)amino)-5-((4-(1-(3-fluorobicyclo[1.1.1]pentan-1-yl)-1H-indol-3-yl)pyrimidin-2-yl)amino)-4-methoxyphenyl)acrylamide] | – | – | –
4 | – | ≥ 8.00 | – | ≥ 8.00 | 7.00 to 8.00 | ≤ 7.00 | ≤ 7.00 | ≥ 7.30 | ≥ 7.30 | ≤ 6.52 | C=CC(=O)Nc1cc(Nc2nccc(-c3cn(C45CC(C4)C5)c4ccccc34)n2)c(OC)cc1N(C)CCNC [Example 8, N-(5-((4-(1-(Bicyclo[1.1.1]pentan-1-yl)-1H-indol-3-yl)pyrimidin-2-yl)amino)-4-methoxy-2-(methyl(2-(methylamino)ethyl)amino)phenyl)acrylamide] | – | – | –

The remaining lines, values behind:

Row | SMILES | Metabolite AZ5104, Human (hepatocytes) | pIC50 (EGFR (T790M/L858R)) | pIC50 (EGFR L858R) | pIC50 (EGFR Del-19) | pIC50 (EGFR Wt) | pIC50 (IGF1R) | pIC50 (INSR) | pIC50 (H1975 (L858R/T790M)) | pIC50 (PC9 (E746-A750 deletion)) | pIC50 (A431 (WT)) | pIC50 (H1975) | clinical side effect: diarrhea [1] [%] | clinical side effect: rash [1] [%]
5 | C=CC(=O)Nc1cc(Nc2nccc(-c3c[nH]c4ccccc34)n2)c(OC)cc1N(C)CCN(C)C [AZ5104] | – | – | – | – | – | – | – | – | – | – | 8.70 | – | –
6 | C=CC(=O)Nc1cc(Nc2nccc(-c3cn(C)c4ccccc34)n2)c(OC)cc1N(C)CCN(C)C [AZD9291] | Observed | – | – | – | – | – | – | – | – | – | 7.82 | 42 | 41
7 | C=CC(=O)Nc1cc(Nc2nccc(-c3cn(C45CC(C4)C5)c4ccccc34)n2)c(OC)cc1N(C)CCN(C)C [Example 1, N-(5-((4-(1-(bicyclo[1.1.1]pentan-1-yl)-1H-indol-3-yl)pyrimidin-2-yl)amino)-2-((2-(dimethylamino)ethyl)(methyl)amino)-4-methoxyphenyl)acrylamide] | did not lead to the formation | ≥ 8.00 | ≥ 8.00 | ≥ 8.00 | ≥ 8.00 | ≤ 7.00 | ≤ 7.00 | ≥ 7.30 | ≥ 7.30 | ≤ 6.52 | – | – | –
8 | C=CC(=O)Nc1cc(Nc2nccc(-c3cn(C45CC(C#N)(C4)C5)c4ccccc34)n2)c(OC)cc1N(C)CCN(C)C [Example 2, N-(5-((4-(1-(3-cyanobicyclo[1.1.1]pentan-1-yl)-1H-indol-3-yl)pyrimidin-2-yl)amino)-2-((2-(dimethylamino)ethyl)(methyl)amino)-4-methoxyphenyl)acrylamide] | – | ≥ 8.00 | – | ≥ 8.00 | ≥ 8.00 | ≤ 7.00 | ≤ 7.00 | 6.52 to 7.30 | 6.52 to 7.30 | ≤ 6.52 | – | – | –
9 | C=CC(=O)Nc1cc(Nc2ncc(C#N)c(-c3cn(C45CC(C4)C5)c4ccccc34)n2)c(OC)cc1N(C)CCN(C)C [Example 3, N-(5-((4-(1-(bicyclo[1.1.1]pentan-1-yl)-1H-indol-3-yl)-5-cyanopyrimidin-2-yl)amino)-2-((2-(dimethylamino)ethyl)(methyl)amino)-4-methoxyphenyl)acrylamide] | – | ≥ 8.00 | – | ≥ 8.00 | ≥ 8.00 | ≤ 7.00 | ≤ 7.00 | ≥ 7.30 | ≥ 7.30 | 6.52 to 7.30 | – | – | –
10 | C=CC(=O)Nc1cc(Nc2nccc(-c3cn(C)c4ccccc34)n2)c(OC)cc1N(C)C12CC(CN(C)C)(C1)C2 [Example 4, N-(2-((3-((dimethylamino)methyl)bicyclo[1.1.1]pentan-1-yl)(methyl)amino)-4-methoxy-5-((4-(1-methyl-1H-indol-3-yl)pyrimidin-2-yl)amino)phenyl)acrylamide] | – | ≤ 7.00 | – | ≤ 7.00 | 7.00 to 8.00 | ≤ 7.00 | ≤ 7.00 | ≤ 6.52 | ≤ 6.52 | ≤ 6.52 | – | – | –
